Measurements as given in patent US20250319067A1, “Improved Pharmacokinetics of Tryptamine Prodrugs” (Reunion Neuroscience, Inc., priority 2023, published 2025).
Like-named read-outs stand apart in the source and are kept apart here.

How the values were obtained:
[1] = GLP 14-day extended single SC dose toxicity study in rats; details: rat; for NOAEL at 14 days: in vivo
Method: (§1) In a GLP 14-day extended single SC dose toxicity study in rats, doses of 0 (PBS), 10, 25 and 75 mg/kg were evaluated. Animals were necropsied on Study Day 2 and Day 14 (also referred to as Recovery Day 13) post-dosing.
(§2) A non-GLP dose range study was performed in the dog in order to determine an MTD. Single SC doses of 7.5, 15 and 20 mg/kg were evaluated.

rats = assay: as above
Method: as §1, §2

[2] = Prodrug cleavage in human plasma; assay type: in vitro ADME; details: human plasma, 37° C.
Method: Mean values from 3 replicate assays are reported. See the Supplemental Methods for additional details.
Triplicate aliquots (50 μL) of each spiked plasma solution were immediately added to 200 μL of ice-cold methanol/acetonitrile solution (50:50 v/v) containing the internal standards to generate time zero samples. Spiked plasma solutions were incubated at 37° C. in an orbital shaker set to 75 rpm, and 50-μL samples were taken in triplicate after 30 minutes and 1, 2, and 4 hours of incubation. Each sample was immediately added to 200 μL ofice-cold methanol/acetonitrile solution containing the internal standard(s) to terminate the reaction. Samples were mixed by vortex and then stored at −80° C. until analysis.
Calibration standards were prepared in plasma for each species and analyzed in batches by LC-MS/MS. Sample batches consisted of 3 replicates of a system suitability standard (containing the analyte and internal standard), the appropriate calibration standards in ascending order including a blank sample without internal standard, a zero sample (with internal standard), and at least 6 nonzero standards and the assay samples, followed by the 3 replicates of the system suitability sample.

healthy females = assay: Phase 1 FIH study: Mystical Experience Questionnaire (MEQ30); assay type: in vivo, human
Method: (§3) The study was a double-blind, randomized, placebo-controlled Phase 1 single ascending dose study in up to 6 cohorts in healthy females. Eligibility was assessed during a screening period of up to 28 days prior to enrollment. For the treatment period, subjects were admitted to the clinical research unit (CRU) one day prior to the dosing (Day −1). On Day 1, all subjects will received the assigned SC dose of RE104 HCl or placebo in a fed state (after domiciling overnight and consuming a planned evening meal on Day −1 and morning meal on Day 1 while at the CRU). Subjects were allowed to select snacks from a planned menu from 4 hours following dosing. Subjects were discharged from the clinic on Day 2 (−24 hours post-dose) after all required study procedures were completed and if deemed medically fit. Subjects returned to the clinic on Day 10 (±2 days) for a follow up visit.
The Mystical Experience Questionnaire (MEQ30) is a validated questionnaire that assesses individual episodes of a mystical experience produced by classic hallucinogens (Barrett et al. 2015). The validated MEQ30 uses thirty questions across 4 areas of experience: (i) Mystical (including items concerning internal unity, external unity, noetic quality, and sacredness); (ii) Positive mood; (iii) Transcendence of time and space; and (iv) Ineffability. The subjects will be asked to rate each item of the MEQ30 on a 6-point scale. FIG. 3 sets out the revised MEQ30 that was used.

[3] = Phase 1 FIH study: plasma pharmacokinetics (LC-MS/MS); assay type: in vivo; details: human; for Cmax / Tmax / half-life: female, plasma; for half-life: read-out: t1/2, mean (converted)
Method: as §3
The concentrations of RE104 and isoprocin in plasma were determined using a validated Liquid chromatography tandem mass spectrometry (LC-MS/MS) assay.

[4] = molecular target: human recombinant 5-HT2A receptors (Homo sapiens, UniProt P28223); assay: 5-HT2A agonist radioligand binding assay ([125I]DOI)
human recombinant 5-HT2A receptors, sequence (P28223 whole entry): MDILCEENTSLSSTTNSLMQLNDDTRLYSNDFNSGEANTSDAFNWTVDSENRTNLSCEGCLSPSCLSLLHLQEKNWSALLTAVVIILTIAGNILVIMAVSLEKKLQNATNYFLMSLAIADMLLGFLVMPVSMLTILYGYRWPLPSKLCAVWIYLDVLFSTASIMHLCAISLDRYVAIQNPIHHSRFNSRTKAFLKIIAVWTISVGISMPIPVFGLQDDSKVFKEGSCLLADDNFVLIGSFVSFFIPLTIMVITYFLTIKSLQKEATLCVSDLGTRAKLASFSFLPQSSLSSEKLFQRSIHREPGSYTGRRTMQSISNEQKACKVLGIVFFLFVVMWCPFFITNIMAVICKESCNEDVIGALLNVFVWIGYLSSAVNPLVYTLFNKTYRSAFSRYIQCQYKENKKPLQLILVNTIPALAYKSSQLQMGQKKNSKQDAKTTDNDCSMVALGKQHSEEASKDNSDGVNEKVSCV
Method: Increasing concentrations of RE104 were incubated with 0.2 nM [^125I]DOI in CHO cell cultures expressing human recombinant 5-HT2B receptors.
Radioligand concentration was measured by scintillation counting; compound binding was calculated as percent inhibition of the binding of [^125I]DOI. In agonist activity assays, test concentrations of RE104 were incubated with HEK-293 cells expressing human recombinant 5-HT2A receptors; IP1 production was detected using homogeneous time-resolved fluorescence. Activation was calculated as a percentage of the response to the positive control (10 μM 5-HT).
Inhibition constants were calculated by using the Cheng-Prusoff equation Ki=IC50/(1+L/KD), where L=radioligand concentration and KD=radioligand affinity for the receptor (determined with a Scatchard plot). In the functional activity assay test concentrations of RE104 were 10 nM, 30 nM, 100 nM, 300 nM, 1 μM, 3 μM, 10 μM, and 30 μM. EC50 and IC50 values were determined by nonlinear regression analysis of the concentration-response curves generated with mean replicate values using Hill equation curve fitting.

For `CC(C)N(CCc1c[nH]c2cccc(OC(=O)CCCC(=O)O)c12)C(C)C` [RE104], the NOAEL at 14 days ([1]; Sprague Dawley, sc) was 10 mg/kg, the Cmax ([1]; Sprague Dawley, plasma, sc, 10 mg/kg) was 0.751 ng/mL and the NOAEL at 14 days ([1]; both, Sprague Dawley, sc) was 10 mg/kg. The NOAEL at 14 days ([1]; female, subcutaneous) was 10 mg/kg, the “human equivalent dose [HED] of the 10 mg/kg rat dose” value (rats; expressed as zwitterion, 60 kg human, BSA conversion) was “approximately 97 mg” and the “low adverse effect level (LOAEL)” value (rats; male rats) was 10 mg/kg. The “1/10 of HED” value (rats; rat) was 0.16 mg/kg, the “1/10 of Human BSA dose” value (rats; rat) was 9.7 mg and the “Human BSA dose” value (rats; rat) was 60 mg/m^2. The “fold HED higher than proposed starting dose” value (rats; rat HED vs 5 mg (zwitterion)) was “approximately 19 fold”, the “fold HED higher than maximum proposed dose” value (rats; rat HED vs 48 mg (zwitterion)) was ~2 fold and the HED (rats; rat NOAEL, BSA conversion factors) was 1.6 mg/kg. The “Human BSA dose” value (rats; rat, based on a BSA of 1.62 m^2) was 97.2 mg, the completeness of conversion [2] was > 95% and the “time of conversion to 4-OH-DiPT” value [2] was < 30 min. For the same compound, the “Participants with MEQ total score ≥60%” value (healthy females; RE104 5.5 mg, n 6) was 0%, the “Participants with MEQ total score ≥60%” value (healthy females; RE104 11 mg, n 6) was 50% and the “Participants with MEQ total score ≥60%” value (healthy females; RE104 22 mg, n 6) was 16.7%. The “Participants with MEQ total score ≥60%” value (healthy females; RE104 33 mg, n 9) was 66.7%, the “Participants with MEQ total score ≥60%” value (healthy females; RE104 38 mg, n 6) was 83.3% and the “Participants with MEQ total score ≥60%” value (healthy females; RE104 44 mg, n 3) was 100%. The Cmax ([3]; RE104 dose 5.5 mg SC (n = 6)) was 173 ng/mL, the Tmax ([3]; RE104 dose 5.5 mg SC (n = 6)) was 25.2 min and the half-life ([3]; RE104 dose 5.5 mg SC (n = 6)) was 31.8 min. The Cmax ([3]; RE104 dose 11 mg SC (n = 6)) was 527 ng/mL, the Tmax ([3]; RE104 dose 11 mg SC (n = 6)) was 19.8 min and the half-life ([3]; RE104 dose 11 mg SC (n = 6)) was 28.8 min. It also gave a Cmax ([3]; RE104 dose 22 mg SC (n = 6)) of 788 ng/mL, a Tmax ([3]; RE104 dose 22 mg SC (n = 6)) of 22.8 min and a half-life ([3]; RE104 dose 22 mg SC (n = 6)) of 30 min. It also gave a Cmax ([3]; RE104 dose 33 mg SC (n = 9)) of 1460 ng/mL, a Tmax ([3]; RE104 dose 33 mg SC (n = 9)) of 15 min and a half-life ([3]; RE104 dose 33 mg SC (n = 9)) of 25.8 min. The Cmax ([3]; RE104 dose 38 mg SC (n = 6)) was 1250 ng/mL, the Tmax ([3]; RE104 dose 38 mg SC (n = 6)) was 22.8 min and the half-life ([3]; RE104 dose 38 mg SC (n = 6)) was 38.4 min. It also gave a Cmax ([3]; RE104 dose 44 mg SC (n = 3)) of 1800 ng/mL, a Tmax ([3]; RE104 dose 44 mg SC (n = 3)) of 25.2 min and a half-life ([3]; RE104 dose 44 mg SC (n = 3)) of 31.2 min. The “time after administration by which not detectable in plasma” value ([3]; any dose) was ≤ 5 h, the IC50 [4] was 1600 nM and the Ki ([4]; read-out: binding Ki at the 5-HT2A receptor, radioligand inhibition binding, HEK-293 cells) was 4300 nM.
